Experimental data from US10681909B2, “Herbicidal triazoles” (FMC Corporation, priority 2014, dated 2020).

How the values were obtained:
kochia = assay: Test A postemergence; assay type: in vivo, Kochia scoparia; details: 0 to 100 scale (0 no effect, 100 complete control), approx. 10 d
In short: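 Visual injury score, 0 (no effect) to 100 (complete control), taken about 10 d after treatment against untreated greenhouse controls. Chemicals formulated in non-phytotoxic solvent plus surfactant; preemergence by directed soil spray onto sown loam/sand, postemergence onto one- to two-leaf plants.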

ryegrass, Italian = assay: Test C preemergence; assay type: in vivo, Lolium multiflorum; details: for Ryegrass, Italian plant response rating (0 to 100): Preemergence, visual rating after 13 to 15 d; for Plant response rating (scale of 0 to 100 where 0 is no effect and 100 is complete control): Ryegrass, Italian, preemergence
Description: Seeds of plant species selected from blackgrass (Alopecurus myosuroides), ryegrass, Italian (Italian ryegrass, Lolium multiflorum), wheat (winter wheat, Triticum aestivum), galium (catchweed bedstraw, Galium aparine), corn (Zea mays), crabgrass, large (large crabgrass, Digitaria sanguinalis), foxtail, giant, (giant foxtail, Setaria faberii), johnsongrass (Sorghum halepense), lambsquarters (Chenopodium album), morningglory (Ipomoea coccinea), nutsedge, yellow (yellow nutsedge, Cyperus esculentus), pigweed (Amaranthus retroflexus), ragweed (common ragweed, Ambrosia elatior), soybean (Glycine max), barnyardgrass (Echinochloa crus-galli), oilseed rape (Brassica napus), waterhemp (common waterhemp, Amaranthus rudis), and velvetleaf (Abutilon theophrasti) were planted into a blend of loam soil and sand and treated preemergence with test chemicals formulated in a non-phytotoxic solvent mixture which included a surfactant. At the same time, plants selected from these crop and weed species and also chickweed (common chickweed, Stellaria media), oat, wild (wild oat, Avena fatua), and kochia (Kochia scoparia), were planted in pots containing Sunshine Redi-Earth® planting medium comprising spaghnum peat moss, vermiculite, starter nutrients and dolomitic limestone and treated with postemergence applications of test chemicals formulated in the same manner. Plants ranged in height from 2 to 18 cm (1- to 4-leaf stage) for postemergence treatments. […] A dash (-) response means no test result.

Russian thistle = assay: Test D preemergence; assay type: in vivo, Salsola kali; details: for Plant response rating (0 to 100), Russian Thistle: 16 g ai/ha, 0 is no effect, 100 is complete control; for Plant response rating: Russian Thistle: scale 0 to 100
Description: (§1) Seeds of plant species selected from bluegrass (annual bluegrass, Poa annua), blackgrass (Alopecurus myosuroides), canarygrass (Phalaris minor), chickweed (common chickweed, Stellaria media), galium (catchweed bedstraw, Galium aparine), bromegrass, down (downy bromegrass, Bromus tectorum), Russian thistle (Salsola kali), field poppy (Papaver rhoeas), field violet (Viola arvensis), foxtail, green (green foxtail, Setaria viridis), deadnettle (henbit deadnettle, Lamium amplexicaule), ryegrass, Ital. (Italian ryegrass, Lolium multiflorum), kochia (Kochia scoparia), lambsquarters (Chenopodium album), oilseed rape (Brassica napus), pigweed (Amaranthus retroflexus), chamomile (scentless chamomile, Matricaria inodora), speedwell (bird's-eye speedwell, Veronica persica), barley, spring (spring barley, Hordeum vulgare), wheat, spring (spring wheat, Triticum aestivum), buckwheat, wild (wild buckwheat, Polygonum convolvulus), wild mustard (Sinapis arvensis), oat, wild (wild oat, Avena fatua), radish, wild (wild radish, Raphanus raphanistrum), […]), barley, winter (winter barley, Hordeum vulgare), and wheat, winter (winter wheat, Triticum aestivum) were planted into a silt loam soil and treated preemergence with test chemicals formulated in a non-phytotoxic solvent mixture which included a surfactant. At the same time, these species were planted in pots containing Sunshine Redi-Earth® planting medium comprising spaghnum peat moss, vermiculite, starter nutrients and dolomitic limestone and treated with postemergence applications of the test chemicals formulated in the same manner. Plants ranged in height from 2 to 18 cm (1- to 4-leaf stage). Treated plants and controls were maintained in a controlled growth environment for 14 to 21 d after which time all species were compared to controls and visually evaluated. […] A dash (-) response means no test result.

pigweed [1] = assay: Test D preemergence; assay type: in vivo, Amaranthus retroflexus; details: for Plant response rating (0 to 100), Pigweed: 16 g ai/ha, 0 is no effect, 100 is complete control; for Plant response rating: Pigweed: scale 0 to 100
Description: as §1

chickweed = assay: Test D postemergence; assay type: in vivo, Stellaria media; details: scale 0 to 100
Description: as §1

pigweed [2] = assay: Test D postemergence; assay type: in vivo, Amaranthus retroflexus; details: scale 0 to 100
Description: as §1

chamomile = assay: Test D postemergence; assay type: in vivo, Matricaria inodora; details: scale 0 to 100
Description: as §1

CCOc1nc(-c2ccc(C(F)(F)F)cc2)nn1Cc1ccnc(C(F)(F)F)c1 [Compound 35, 4-[[5-ethoxy-3-[4-(trifluoromethyl)phenyl]-1H-1,2,4-triazole-1-yl]methyl]-2-(trifluoromethyl)pyridine]
85: Ryegrass, Italian plant response rating (0 to 100) (ryegrass, Italian; 62 g ai/ha) | Plant response rating: Russian Thistle (Russian thistle; 125 g ai/ha) | Plant response rating: Chickweed (chickweed; 31 g ai/ha)
100: Plant response rating (0 to 100), Pigweed (pigweed [1]) | Plant response rating: Pigweed (pigweed [1]; 62 g ai/ha) | Plant response rating: Pigweed (pigweed [1]; 125 g ai/ha) | Plant response rating: Chickweed (chickweed; 62 g ai/ha) | Plant response rating: Chickweed (chickweed; 125 g ai/ha) | Plant response rating: Pigweed (pigweed [2]; 16 g ai/ha) | Plant response rating: Pigweed (pigweed [2]; 31 g ai/ha) | Plant response rating: Pigweed (pigweed [2]; 62 g ai/ha) | Plant response rating: Pigweed (pigweed [2]; 125 g ai/ha) | Plant response rating: Chamomile (chamomile; 125 g ai/ha)
90: Plant response rating, Kochia (kochia; 31 g ai/ha) | Plant response rating, Kochia (kochia; 125 g ai/ha) | Plant response rating (scale of 0 to 100 where 0 is no effect and 100 is complete control) (ryegrass, Italian; 125 g ai/ha) | Plant response rating (scale of 0 to 100 where 0 is no effect and 100 is complete control) (ryegrass, Italian; 250 g ai/ha)
75: Plant response rating: Chamomile (chamomile; 31 g ai/ha)
70: Ryegrass, Italian plant response rating (0 to 100) (ryegrass, Italian; 31 g ai/ha) | Plant response rating (0 to 100), Russian Thistle (Russian thistle) | Plant response rating: Chickweed (chickweed; 16 g ai/ha) | Plant response rating: Chamomile (chamomile; 16 g ai/ha)
95: Plant response rating: Chamomile (chamomile; 62 g ai/ha)
80: Plant response rating: Russian Thistle (Russian thistle; 62 g ai/ha)

Fc1ccc(-c2nc(OCC(F)(F)F)n(Cc3ccnc(C(F)(F)F)c3)n2)cc1 [Compound 30]
20: Plant response rating: Chamomile (chamomile; 16 g ai/ha)
100: Plant response rating (0 to 100), Pigweed (pigweed [1]) | Plant response rating: Pigweed (pigweed [1]; 62 g ai/ha) | Plant response rating: Pigweed (pigweed [1]; 125 g ai/ha) | Plant response rating: Chickweed (chickweed; 62 g ai/ha) | Plant response rating: Chickweed (chickweed; 125 g ai/ha) | Plant response rating: Pigweed (pigweed [2]; 16 g ai/ha) | Plant response rating: Pigweed (pigweed [2]; 31 g ai/ha) | Plant response rating: Pigweed (pigweed [2]; 62 g ai/ha) | Plant response rating: Pigweed (pigweed [2]; 125 g ai/ha)
30: Plant response rating: Chamomile (chamomile; 31 g ai/ha)
70: Plant response rating (scale of 0 to 100 where 0 is no effect and 100 is complete control) (ryegrass, Italian; 125 g ai/ha) | Plant response rating (scale of 0 to 100 where 0 is no effect and 100 is complete control) (ryegrass, Italian; 250 g ai/ha) | Plant response rating: Chickweed (chickweed; 16 g ai/ha) | Plant response rating: Chamomile (chamomile; 125 g ai/ha)
5: Ryegrass, Italian plant response rating (0 to 100) (ryegrass, Italian; 31 g ai/ha)
90: Plant response rating, Kochia (kochia; 125 g ai/ha) | Plant response rating, Kochia (kochia; 500 g ai/ha) | Plant response rating: Russian Thistle (Russian thistle; 62 g ai/ha) | Plant response rating: Russian Thistle (Russian thistle; 125 g ai/ha)
60: Ryegrass, Italian plant response rating (0 to 100) (ryegrass, Italian; 62 g ai/ha)
40: Plant response rating: Chamomile (chamomile; 62 g ai/ha)
80: Plant response rating (0 to 100), Russian Thistle (Russian thistle) | Plant response rating: Chickweed (chickweed; 31 g ai/ha)
